Data taken from patent publication US20240002351A1, “QUINAZOLIN-4-ONE AND THIENO[2,3-D]PYRIMIDIN-4-ONE INHIBITORS OF ERBB4 (HER4) FOR USE IN THE TREATMENT OF CANCER” (UNIVERSITEIT ANTWERPEN, priority 2021, published 2024).

Key:
[1] = target: T1, ERBB4 (Homo sapiens, UniProt Q15303); experiment: PathHunter ERBB4/ERBB4 dimerization assay, compounds on top of 0.1 μM NRG-1 (identification of modulators); type: cell-based; details: for Emax: on top of 0.1 μM NRG1, relative to NRG1 (set as 100%); for behaviour from the shape of the dose-response curves: on top of 0.1 μM neuregulin-1 (FIG. 1); for EC50: on top of 0.1 μM NRG1
T1 construct: host or cells: U2OS
T1 sequence (Q15303 26-1308): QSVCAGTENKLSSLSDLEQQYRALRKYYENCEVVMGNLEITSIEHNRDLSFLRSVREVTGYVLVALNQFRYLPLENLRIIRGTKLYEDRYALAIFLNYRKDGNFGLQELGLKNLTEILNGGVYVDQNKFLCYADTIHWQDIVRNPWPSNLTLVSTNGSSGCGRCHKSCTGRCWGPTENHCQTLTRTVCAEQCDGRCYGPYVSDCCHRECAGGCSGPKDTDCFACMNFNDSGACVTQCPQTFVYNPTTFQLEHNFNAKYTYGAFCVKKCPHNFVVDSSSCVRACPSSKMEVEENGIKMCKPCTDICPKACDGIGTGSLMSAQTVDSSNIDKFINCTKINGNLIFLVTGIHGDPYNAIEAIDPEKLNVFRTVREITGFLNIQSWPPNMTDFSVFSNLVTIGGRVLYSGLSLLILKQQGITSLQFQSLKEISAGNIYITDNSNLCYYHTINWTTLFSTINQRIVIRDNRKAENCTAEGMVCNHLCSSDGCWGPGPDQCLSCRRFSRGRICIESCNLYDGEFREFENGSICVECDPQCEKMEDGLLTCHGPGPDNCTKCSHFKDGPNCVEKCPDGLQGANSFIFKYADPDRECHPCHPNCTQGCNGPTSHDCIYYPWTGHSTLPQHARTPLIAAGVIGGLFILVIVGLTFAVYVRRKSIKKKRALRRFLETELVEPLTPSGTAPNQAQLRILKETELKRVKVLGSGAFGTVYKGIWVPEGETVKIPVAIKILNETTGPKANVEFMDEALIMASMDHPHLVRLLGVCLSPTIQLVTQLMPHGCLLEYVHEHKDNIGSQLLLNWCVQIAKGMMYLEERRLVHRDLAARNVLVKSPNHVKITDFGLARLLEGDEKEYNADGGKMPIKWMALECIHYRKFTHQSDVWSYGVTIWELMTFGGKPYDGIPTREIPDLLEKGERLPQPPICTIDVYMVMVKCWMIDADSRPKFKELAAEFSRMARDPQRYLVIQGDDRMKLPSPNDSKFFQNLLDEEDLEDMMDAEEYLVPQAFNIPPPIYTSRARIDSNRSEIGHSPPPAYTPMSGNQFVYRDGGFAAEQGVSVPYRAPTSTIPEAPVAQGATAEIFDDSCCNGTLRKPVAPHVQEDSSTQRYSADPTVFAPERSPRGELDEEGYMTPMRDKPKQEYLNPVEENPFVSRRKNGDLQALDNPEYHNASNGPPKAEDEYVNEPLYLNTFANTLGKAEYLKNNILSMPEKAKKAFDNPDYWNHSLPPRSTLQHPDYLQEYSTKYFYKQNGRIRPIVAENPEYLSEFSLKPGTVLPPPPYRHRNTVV
Protocol: (§1) Following 1-12 passages, U2OS ERBB4/ERBB4 dimerization cell line (Eurofins, 93-0961C3) were seeded at 10,000 cells/well in 100 μL cell plating reagent (Eurofins, 93-0563R0A) in white walled 96-well plates (PerkinElmer, 6005680) and incubated for 24h at 37° C. in humidified atmosphere of 5% CO2 in air. Cells were treated with 10 μL of compound (prepared at 11×, Enamine), 10 μM Heregulin-β1 (NRG-1) (DiscoverX, 92-1031 or Peprotech, 100-03) or PBS. […] Cells were subsequently incubated for 6 hours at 37° C., 5% CO2. Then 110 μL PathHunter Flash Detection Reagents (93-0247) were added to each well and cells were incubated at room temperature for 1 hour (covered from light). Afterwards luminescence signal was measured using the Luminoskan Ascent (Thermofisher). Dose response curves of the compounds were performed in 2-fold (0,0625 μM-32 μM).
Cells were treated with compound (prepared at 22×, 10 min pre-incubation) together with NRG-1 (0.1 μM final concentration, Peprotech, 100-03), or NRG-1 (0.1 μM final concentration) or PBS.
The EC50 and the Emax of the compounds on top of 0.1 μM NRG1 is depicted in Table 3 relative to NRG1 (set as 100%).

[2] = target: T1, ERBB4; experiment: PathHunter ERBB4/ERBB4 dimerization assay, dose-response curves; type: cell-based; details: U2OS ERBB4/ERBB4 dimerization cell line, 6 hours, compound alone; for Emax: NRG-1 = 100
Protocol: as §1
From these curves, the EC50 and the Emax of the compounds was calculated.

[3] = test system: Human atrial cardiac fibroblasts (HCF); experiment: In vitro fibrosis assay, TGFβ-stimulated HCF (qRT-PCR); type: cell-based; details: TGFβ 10 ng/mL, 24 hours (FIG. 9)
Protocol: Human dermal fibroblasts (HDF, Cell applications, 106-05A) were cultured in Dulbecco's modified Eagle's medium (DMEM, ThermoFisher Scientific, 11995065) supplemented with 10% (v/v) heat-inactivated fetal bovine serum (FBS, ThermoFisher Scientific, 10082147), 1% penicillin/streptomycin and 1 mL polymyxin B and were maintained at 37° C. in humidified atmosphere of 5% CO2 in air. Human atrial cardiac fibroblasts (HCF, Innoprot, P10454) were cultured in fibroblast medium (Innoprot, P60108) supplemented with fetal bovine serum, fibroblast growth supplement and penicillin/streptomycin and were maintained at 37° C. in humidified atmosphere of 5% CO2 in air.
Following 1-9 passages, HDF and HCF were seeded at 0.3×10^6 cells/well in 1 mL cell medium in 12-well plates and incubated overnight at 37° C. in humidified atmosphere of 5% CO2 in air. Next, cells were put on serum starved medium (0.1% FBS) for 8 hours and then stimulated for 24 hours with either PBS, active compound (4-32 μM) or non-active compound (NA1, NA2; 4-32 μM) on top of TGFβ (10 ng/mL, Peprotech, 100-21). […] Next, cells were lysed using 100 μL lysis buffer RA1 (of RNA isolation kit below) supplemented with β-mercapto-ethanol (100:1), scraped with a cell scraper and transferred to centrifuge tubes to be stored at −20° C. for a maximum of 2 weeks before RNA isolation.
RNA was extracted using Nucleospin RNA XS (Machery Nagel) according to the manufacturer's instructions. For cDNA synthesis, total RNA was added to a solution containing buffer with random hexamers and reverse transcriptase enzyme. The PCR was performed using the following parameters: 10 minutes at 25° C., 30 minutes at 48° C., 5 minutes at 95° C. RT-qPCR on the cDNA samples was performed using Taqman Universal PCR Master Mix (Applied Biosystems) and Taqman primers according to the manufacturer's instructions. […] Expression levels were calculated using the comparative cycle method and expressed as fold change to appropriate (background) control. […]

[4] = test system: EFO-21 cells; experiment: AK (adenylate kinase) toxicity assay; type: cell-based; details: 32 μM, 24 hours, EFO-21 cells (FIG. 3)
Protocol: EFO-21 cells were seeded at 10,000 cells/well in 100 μL cell medium in white walled 96-well plates (PerkinElmer, 6005680) and incubated overnight at 37° C. in humidified atmosphere of 5% CO2 in air. Next, cells were put on serum starved (SS) medium (0,1% FBS) overnight. Overnight cell cultures were then stimulated with PBS, compound (32 μM, Enamine) and/or NRG-1 (0.1 μM, Peprotech, 100-03) for 24 hours at 37° C. in humidified atmosphere of 5% CO2 in air. […] Next, 100 μL Toxilight AK detection reagent was added to each well and incubated at room temperature for 5 minutes. Luminescence was measured using the Luminoskan Ascent (Thermofisher).

[5] = Plasma stability, mouse plasma; type: in vitro ADME; details: 50 μM, 37° C., over 6 hours (FIG. 12)
Protocol: (§2) A 5 μL aliquot of compound solution (10 mM in DMSO) was added to 995 μL of Non Swiss Albino Mouse Plasma (DivBioScience, Breda, Netherlands) or Pooled Normal Human plasma in sodium citrate to obtain a final concentration of 50 μM compound in plasma. The mixture was gently shaken for 6 hours at 37° C. Aliquots of 100 μL were taken at various time points (0, 0.5, 1, 2 and 6 hrs.) and diluted with 400 μL of cold acetonitrile (Sigma-Aldrich, stored at 4° C.). The suspension was centrifuged at 14000 rpm for 5 min. Thereafter, 50 μL of the supernatant was diluted with 950 μL of acetonitrile and analyzed with LC-MS/MS (Waters Acquity H-class UPLC system with ion trap mass spectrometer, Bruker Daltonics Esquire 3000 plus, and Agilent 1100 Series LC system). Samples were analyzed in triplicate and plotted against a standard curve (compound at 3.12-100 μM in plasma and diluted in acetonitrile as described above).

[6] = Metabolic stability, mouse liver microsomes; type: in vitro ADME
Protocol: (§3) A mixture of 713 μL milliQ water (Millipore, MA, USA), 200 μL 0.5 M phosphate buffer (pH 7.4, BD Diagnostic Systems, MD, USA), 50 μL NADPH regenerating system solution A (BD Biosciences, CA, USA), 10 μL NADPH regenerating system solution B (BD Biosciences, CA, USA) and 2 μL compound (5 mM in DMSO) was prepared and heated for 5 min at 37° C. Twenty-five μL of liver microsomes (0.5 mg protein/mL, Corning B.V. Life Sciences, Amsterdam, Netherlands) was added to the mixture and 20 μL samples were withdrawn at 0, 0.25, 0.5 and 1, 2, 4, 6 and 24 hours. Eighty μL (4×20 μL) of cold acetonitrile (Sigma-Aldrich, MO, USA) was added to the samples on ice for 10 min. Afterwards, the mixtures were centrifuged at 13,000 rpm for 5 min at 4° C. Seventy-five μL of an acetonitrile/water (10/90) mixture was added to 25 μL supernatant and the obtained samples were analyzed by LC-MS/MS (Waters Acquity H-class UPLC system with ion trap mass spectrometer, Bruker Daltonics Esquire 3000 plus, and Agilent 1100 Series LC system) in triplicate.

[7] = Plasma stability, human plasma; type: in vitro ADME; details: 50 μM, 37° C., over 6 hours (FIG. 12)
Protocol: as §2

[8] = Chemical stability; type: physicochemical; details: 37° C. and pH 7.4 for 24 hours (FIG. 11)
Protocol: A 10 μL aliquot of compound solution (10 mM in DMSO) was added to 990 μL DMSO (100 μM) and further diluted with […] to a stock solution of 500 nM. The mixture was incubated at 37° C. Aliquots of 100 μL were taken at various time points (0, 0.5, 1, 2, 3, 6 and 24 hrs) and analyzed with LC-MS/MS (Waters Acquity H-class UPLC system with ion trap mass spectrometer, Bruker Daltonics Esquire 3000 plus, and Agilent 1100 Series LC system). Samples were analyzed in triplicate and plotted against a standard curve; compound at 31-500 nM in buffer solution of pH 7.4 (10 mM Potassium Phosphate, BD Gentest).

[9] = Metabolic stability, human liver microsomes; type: in vitro ADME
Protocol: as §3

[10] = Solubility in PBS (absorbance); type: physicochemical; details: aqueous buffer, kinetic from dmso stock, 37° C., 2 hours (FIG. 10), read-out: solubility: concentration at which easily soluble
Protocol: A dilution series (0.16, 0.31, 0.62, 1.25, 2.5 and 5 mM) was made starting with a compound stock solution of 10 mM in DMSO. Aliquot of 4 μL was taken out of every dilution and added to 196 μL PBS in a 96-well plate. The plate was shaken for 10 seconds, incubated at 37° C. for 2 hours and thereafter absorbance was measured. Samples were analyzed in duplicate.

| SMILES | Emax [1] [%] | behaviour from the shape of the dose-response curves [1] | EC50 [2] [µM] | Emax [2] [%] | col1a1 levels in comparison with TGFβ control [3] | toxicity (AK release) [4] | plasma stability, mouse plasma [5] | t1/2 mouse ([6]; mouse liver microsomes) [min] | half-life at 10 µM ([6]; mouse, liver microsomes, pH 7.4, mouse liver microsomes, read-out: t1/2 mouse) [min] | plasma stability, human plasma [7] | chemical stability [8] | t1/2 human ([9]; human liver microsomes) [min] | half-life at 10 µM ([9]; human, liver microsomes, pH 7.4, human liver microsomes, read-out: t1/2 human) [min] | EC50 [1] [µM] | solubility at 2 h [10] [µM] |
| --- | --- | --- | --- | --- | --- | --- | --- | --- | --- | --- | --- | --- | --- | --- | --- |
| CC(=O)c1ccc(NC(=O)C(C)Sc2nc3ccccc3c(=O)n2C2CCCC2)cc1 (stereo not drawn) [Compound 2] | 126 ± 36 | weak or silent allosteric modulators | 10.9 | 9.48 ± 2.13 |  |  |  |  |  |  |  |  |  |  |  |
| CC(Sc1nc2ccccc2c(=O)n1C1CCCC1)C(=O)N(C)c1ccccc1 (stereo not drawn) [Compound 3] | 36 ± 13 | partial agonists or allosteric agonists functioning as partial agonists | 15.8 | 14.3 ± 2.63 | significantly decrease col1a1 levels | limited toxicity |  |  |  |  |  |  |  |  |  |
| CC(C)n1c(SC(C(=O)NC2CC2)c2ccccc2)nc2sc3c(c2c1=O)CCC3 (stereo not drawn) [Compound 4] | 192 ± 34 | ago-allosteric modulators | 7.54 | 16.9 ± 3.69 |  |  | stable | 12 | 8 to 12 | stable | chemically stable | 18 | 17 to 18 | ~21.5 | < 25 |
| O=C1NCCCCC1Sc1nc2sc3c(c2c(=O)n1C1CCCC1)CCCC3 (stereo not drawn) [Compound 5] | 63 ± 14 | partial agonists or allosteric agonists functioning as partial agonists | 6.11 | 17.7 ± 3.45 |  | limited toxicity |  |  |  |  |  |  |  | ~3.36 |  |
| Cc1sc2cc(SCC(=O)NC(C)(C#N)C(C)C)n(C3CCCC3)c(=O)c2c1C (stereo not drawn) [Compound 8] | 174 ± 38 | ago-allosteric modulators | 20.4 | 18.4 ± 3.47 |  |  |  |  |  |  |  |  |  |  |  |
